US20160227776A1, “COMPOSITION CONTAINING ATTRACTANT OF NOXIOUS ARTHROPOD COMPRISING PLANT-DERIVED COMPONENT AND ANALOGUE OF SAME” (KYOYU AGRI CO., LTD., priority 2013, published 2016)

Legend:
Format in all cases: in vivo
[1] = system: Frankliniella occidentalis; experiment: Test Example 1: water trap attraction test, single compounds; parameters: key: (captured treated − captured untreated)×100/total released per cage; details: single compound, 30 adult females per cage, 24 hours
Procedure: Hexane solutions were prepared respectively containing single compounds selected from among p-anisaldehyde, benzaldehyde, ethyl nicotinate, geraniol, linalool, nerol, citronellol, methyl anthranilate, methyl benzoate, o-aminoacetophenone, o-anisidine, methyl m-aminobenzoate, methyl o-toluate and α-hexylcinnamaldehyde. Each single compound was prepared at five concentration levels consisting of 0.01 μg, 0.1 μg, 1 μg, 10 μg and 100 μg. After impregnating pieces of filter paper with these solutions, the filter paper was affixed on a plastic vial cap using adhesive tape and set up in a water trap containing a surfactant. After releasing 30 adult female Frankliniella occidentalis into an acrylic cage, the water trap containing the above-mentioned attractants was set up in the cage. 24 hours later, the number of Frankliniella occidentalis captured in the water trap was counted and the attraction rate was calculated using Equation 1.
(§1) Attraction rate=(No. of captured individuals in treatment−no. of captured individuals in untreatment)*100/(total no. released per cage) (1)

Tetranychus urticae = experiment: Test Example 4: plastic tube filter paper contact test, mixtures of two compounds; parameters: key: (treated − untreated contacts) ×100 / repetitions, %; details: weight of each compound 1 μg; contact with filter paper within 10 minutes
Procedure: Mixed hexane solutions were prepared respectively containing two types of compounds selected from among p-anisaldehyde, benzaldehyde, ethyl nicotinate, geraniol, linalool, nerol, citronellol, methyl anthranilate, methyl benzoate, o-aminoacetophenone, o-anisidine, methyl m-aminobenzoate, methyl o-toluate and α-hexylcinnamaldehyde. The weight of each compound was adjusted to 1 μg. After impregnating pieces of filter paper (3 mm^2) with the mixed solution of the two types of compounds, the filter paper was set up at the head of a plastic tube (length of 9 cm, 5 mm^2 in diameters). An adult Tetranychus urticae was released into the end of plastic tube. Among 10 minutes, the number of T. urticae contacted the filter paper was counted and the attraction rate was calculated using Equation 1. In addition, hexane solutions were also prepared containing each of the single compounds at their respective prescribed concentrations for the sake of comparison, and those solutions were tested in the same manner.
Attraction rate=(No. of contacted individuals in treatment−no. of contacted individuals in untreatment)*100/(repetition) (1)
(§2) In general, a synergistic attracting effect expected when mixing two given types of attractive compounds and using for treatment is determined from Colby's equation indicated with the following Equation 2: […]
(§3) X: attraction rate when treated with attractive compound A;
(§4) Y: attraction rate when treated with attractive compound B;
(§5) E: attraction rate expected when treating by mixing attractive compound A and attractive compound B (expected attraction rate value).

[2] = system: Frankliniella occidentalis; experiment: Test Example 3: water trap attraction test, mixtures of three compounds; parameters: scale not given here; details: single compound for comparison, 24 hours
Procedure: (§6) Mixed hexane solutions were prepared containing three types of compounds selected from among p-anisaldehyde, benzaldehyde, ethyl nicotinate, geraniol, linalool, nerol, citronellol, methyl anthranilate, methyl benzoate, o-aminoacetophenone, o-anisidine, methyl m-aminobenzoate, methyl o-toluate and α-hexylcinnamaldehyde. […] After impregnating pieces of filter paper with the mixed solution of the three types of compounds, the filter paper was affixed on a plastic vial cap using adhesive tape and set up in a pan trap containing a surfactant. After releasing 30 adult female Frankliniella occidentalis into an acrylic cage, the water trap containing the above-mentioned mixed attractants was set up in the cage. 24 hours later, the number of Frankliniella occidentalis captured in the water trap was counted and the attraction rate was calculated using Equation 1. In addition, hexane solutions were also prepared containing each of the single agents at their respective prescribed concentrations for the sake of comparison, and those solutions were tested in the same manner.
In general, a synergistic attracting effect expected when mixing three given types of attractive compounds and using for treatment is determined from Colby's equation indicated with the following Equation 3: […]
as §3, §4
Z: attraction rate when treated with attractive compound C; and
E: attraction rate expected when treating by mixing attractive compound A, attractive compound B and attractive compound C (expected attraction rate value).

Drosophila melanogaster = experiment: Test Example 5: water trap attraction test, mixtures of two compounds; parameters: key: % = (captured treated − captured untreated)×100/total released; details: weight of each compound 100 μg; 20 adults per cage; 24 hours
Procedure: Mixed hexane solutions were prepared respectively containing two types of compounds selected from among p-anisaldehyde, benzaldehyde, ethyl nicotinate, geraniol, linalool, nerol, citronellol, methyl anthranilate, methyl benzoate, o-aminoacetophenone, o-anisidine, methyl m-aminobenzoate, methyl o-toluate and α-hexylcinnamaldehyde. The weight of each compound was adjusted to 100 μg. After impregnating pieces of filter paper with the mixed solution of the two types of compounds, the filter paper was affixed on a plastic vial cap using adhesive tape and set up in a water trap containing a surfactant. After releasing 20 adult Drosophila melanogaster into an acrylic cage, the water trap containing the above-mentioned mixed attractants was set up in the cage. 24 hours later, the number of D. melanogaster captured in the water trap was counted and the attraction rate was calculated using Equation 1. In addition, hexane solutions were also prepared containing each of the single compounds at their respective prescribed concentrations for the sake of comparison, and those solutions were tested in the same manner.
as §1, §2, §3
(§7) Y: attraction rate when treated with attractive compound B; and
as §5

[3] = system: Frankliniella occidentalis; experiment: Test Example 2: water trap attraction test, mixtures of two compounds; parameters: key: % of released insects: (treated catch − untreated catch)×100/total released; details: single compound for comparison, 24 hours
Procedure: as §6, with “were prepared respectively containing two” for “were prepared containing three”, “respectively containing two types of” for “prepared containing three types of”, “of the two types of” for “of the three types of”, “in a water trap containing” for “in a pan trap containing”, “the single compounds at their” for “the single agents at their”
as §1, §2, §3, §7, §5

Thrips tabaci = experiment: Test Example 6: yellow sticky trap attraction test, mixtures of two compounds; parameters: key: % = (captured treated − captured untreated)×100/total released per cup; details: weight of each compound 1 μg; 10 adults per cup; 24 hours
Procedure: Mixed hexane solutions were prepared respectively containing two types of compounds selected from among p-anisaldehyde, benzaldehyde, ethyl nicotinate, geraniol, linalool, nerol, citronellol, methyl anthranilate, methyl benzoate, o-aminoacetophenone, o-anisidine, methyl m-aminobenzoate, methyl o-toluate and α-hexylcinnamaldehyde. The weight of each compound was adjusted to 1 μg. After impregnating pieces of filter paper (3 mm^2) with the mixed solution of the two types of compounds, the filter paper was affixed on a yellow sticky trap (1 cm^2). After releasing 10 adult Thrips tabaci into a plastic cup (150 ml), the yellow sticky trap containing the above-mentioned mixed attractants was set up at the side of the plastic cup. 24 hours later, the number of T. tabaci captured in the yellow sticky trap was counted and the attraction rate was calculated using Equation 1. In addition, hexane solutions were also prepared containing each of the single compounds at their respective prescribed concentrations for the sake of comparison, and those solutions were tested in the same manner.
Attraction rate=(No. of captured individuals in treatment−no. of captured individuals in untreatment)*100/(total no. released per cup) (1)
as §2, §3, §4, §5

O=Cc1ccccc1 [Benzaldehyde, benzaldehyde]
Attraction Rate ([1]; Amount 0.01 μg): 23 | Attraction Rate ([1]; Amount 0.1 μg): 33 | Attraction Rate ([1]; Amount 1 μg): 36 | Attraction Rate ([1]; Amount 10 μg): 30 | Attraction Rate ([1]; Amount 100 μg): 27 | Attraction Rate (Tetranychus urticae): 32 | Attraction Rate ([2]; 1 μg): 36 | Attraction Rate (Drosophila melanogaster): 3 | Attraction Rate ([3]; 1 μg): 36

CC(C)=CCCC(C)CCO (centres unmarked) [Citronellol, citronellol]
Attraction Rate ([1]; Amount 0.01 μg): 7 | Attraction Rate ([1]; Amount 0.1 μg): 20 | Attraction Rate ([1]; Amount 1 μg): 20 | Attraction Rate ([1]; Amount 10 μg): 20 | Attraction Rate ([1]; Amount 100 μg): 23 | Attraction Rate ([2]; 100 μg): 23 | Attraction Rate (Drosophila melanogaster): 3 | Attraction Rate ([3]; 100 μg): 23

CCOC(=O)c1cccnc1 [Ethyl nicotinate, ethyl nicotinate]
Attraction Rate ([1]; Amount 0.01 μg): 13 | Attraction Rate ([1]; Amount 0.1 μg): 27 | Attraction Rate ([1]; Amount 1 μg): 30 | Attraction Rate ([1]; Amount 10 μg): 36 | Attraction Rate ([1]; Amount 100 μg): 43 | Attraction Rate (Tetranychus urticae): 15 | Attraction Rate ([2]; 100 μg): 43 | Attraction Rate (Drosophila melanogaster): 3 | Attraction Rate ([3]; 100 μg): 43 | Attraction Rate (Thrips tabaci): 10

CC(C)=CCC/C(C)=C/CO [Geraniol, geraniol]
Attraction Rate ([1]; Amount 0.01 μg): 10 | Attraction Rate ([1]; Amount 0.1 μg): 17 | Attraction Rate ([1]; Amount 1 μg): 30 | Attraction Rate ([1]; Amount 10 μg): 33 | Attraction Rate ([1]; Amount 100 μg): 27 | Attraction Rate ([2]; 10 μg): 33 | Attraction Rate (Drosophila melanogaster): 23 | Attraction Rate ([3]; 10 μg): 33 | Attraction Rate (Thrips tabaci): 0

C=CC(C)(O)CCC=C(C)C (centres unmarked) [Linalool, linalool]
Attraction Rate ([1]; Amount 0.01 μg): 13 | Attraction Rate ([1]; Amount 0.1 μg): 13 | Attraction Rate ([1]; Amount 1 μg): 20 | Attraction Rate ([1]; Amount 10 μg): 13 | Attraction Rate ([1]; Amount 100 μg): 7 | Attraction Rate (Tetranychus urticae): 5 | Attraction Rate ([2]; 1 μg): 20 | Attraction Rate (Drosophila melanogaster): 3 | Attraction Rate ([3]; 1 μg): 20 | Attraction Rate (Thrips tabaci): 0

COC(=O)c1ccccc1N [Methyl anthranilate, methyl anthranilate]
Attraction Rate ([1]; Amount 0.01 μg): 10 | Attraction Rate ([1]; Amount 0.1 μg): 13 | Attraction Rate ([1]; Amount 1 μg): 13 | Attraction Rate ([1]; Amount 10 μg): 17 | Attraction Rate ([1]; Amount 100 μg): 20 | Attraction Rate ([2]; 100 μg): 20 | Attraction Rate (Drosophila melanogaster): 8 | Attraction Rate ([3]; 100 μg): 20 | Attraction Rate (Thrips tabaci): 10

COC(=O)c1ccccc1 [Methyl benzoate, methyl benzoate]
Attraction Rate ([1]; Amount 0.01 μg): 7 | Attraction Rate ([1]; Amount 0.1 μg): 23 | Attraction Rate ([1]; Amount 1 μg): 27 | Attraction Rate ([1]; Amount 10 μg): 33 | Attraction Rate ([1]; Amount 100 μg): 36 | Attraction Rate (Tetranychus urticae): 25 | Attraction Rate ([2]; 100 μg): 46 | Attraction Rate (Drosophila melanogaster): 8 | Attraction Rate ([3]; 100 μg): 36

COC(=O)c1cccc(N)c1 [Methyl m-aminobenzoate, methyl m-aminobenzoate]
Attraction Rate ([1]; Amount 0.01 μg): 3 | Attraction Rate ([1]; Amount 0.1 μg): 10 | Attraction Rate ([1]; Amount 1 μg): 27 | Attraction Rate ([1]; Amount 10 μg): 33 | Attraction Rate ([1]; Amount 100 μg): 40 | Attraction Rate ([2]; 100 μg): 40 | Attraction Rate (Drosophila melanogaster): 8 | Attraction Rate ([3]; 100 μg): 40 | Attraction Rate (Thrips tabaci): 0

COC(=O)c1ccccc1C [Methyl o-toluate, methyl o-toluate]
Attraction Rate ([1]; Amount 0.01 μg): 3 | Attraction Rate ([1]; Amount 0.1 μg): 13 | Attraction Rate ([1]; Amount 1 μg): 17 | Attraction Rate ([1]; Amount 10 μg): 20 | Attraction Rate ([1]; Amount 100 μg): 23 | Attraction Rate (Tetranychus urticae): 15 | Attraction Rate ([2]; 100 μg): 23 | Attraction Rate (Drosophila melanogaster): 3 | Attraction Rate ([3]; 100 μg): 23

CC(C)=CCC/C(C)=C\CO [Nerol, nerol]
Attraction Rate ([1]; Amount 0.01 μg): 10 | Attraction Rate ([1]; Amount 0.1 μg): 33 | Attraction Rate ([1]; Amount 1 μg): 33 | Attraction Rate ([1]; Amount 10 μg): 30 | Attraction Rate ([1]; Amount 100 μg): 27 | Attraction Rate (Tetranychus urticae): 5 | Attraction Rate ([2]; 1 μg): 33 | Attraction Rate (Drosophila melanogaster): 3 | Attraction Rate ([3]; 1 μg): 33

CC(=O)c1ccccc1N [o-aminoacetophenone]
Attraction Rate ([1]; Amount 0.01 μg): 3 | Attraction Rate ([1]; Amount 0.1 μg): 17 | Attraction Rate ([1]; Amount 1 μg): 23 | Attraction Rate ([1]; Amount 10 μg): 30 | Attraction Rate ([1]; Amount 100 μg): 36 | Attraction Rate (Tetranychus urticae): 38 | Attraction Rate ([2]; 100 μg): 36 | Attraction Rate (Drosophila melanogaster): 13 | Attraction Rate ([3]; 100 μg): 36

COc1ccccc1N [o-anisidine]
Attraction Rate ([1]; Amount 0.01 μg): 6 | Attraction Rate ([1]; Amount 0.1 μg): 10 | Attraction Rate ([1]; Amount 1 μg): 20 | Attraction Rate ([1]; Amount 10 μg): 30 | Attraction Rate ([1]; Amount 100 μg): 40 | Attraction Rate (Tetranychus urticae): 15 | Attraction Rate ([2]; 100 μg): 40 | Attraction Rate (Drosophila melanogaster): 8 | Attraction Rate ([3]; 100 μg): 40 | Attraction Rate (Thrips tabaci): 0

COc1ccc(C=O)cc1 [p-anisaldehyde]
Attraction Rate ([1]; Amount 0.01 μg): 17 | Attraction Rate ([1]; Amount 0.1 μg): 23 | Attraction Rate ([1]; Amount 1 μg): 23 | Attraction Rate ([1]; Amount 10 μg): 30 | Attraction Rate ([1]; Amount 100 μg): 36 | Attraction Rate ([2]; 100 μg): 36 | Attraction Rate (Drosophila melanogaster): 3 | Attraction Rate ([3]; 100 μg): 36 | Attraction Rate (Thrips tabaci): 10

CCCCCCC(C=O)=Cc1ccccc1 [α-hexylcinnamaldehyde]
Attraction Rate ([1]; Amount 0.01 μg): 13 | Attraction Rate ([1]; Amount 0.1 μg): 27 | Attraction Rate ([1]; Amount 1 μg): 33 | Attraction Rate ([1]; Amount 10 μg): 30 | Attraction Rate ([1]; Amount 100 μg): 30 | Attraction Rate ([2]; 1 μg): 33 | Attraction Rate (Drosophila melanogaster): 8 | Attraction Rate ([3]; 1 μg): 33 | Attraction Rate (Thrips tabaci): 7
